Measured values from ChEMBL document CHEMBL1135179, “Synthesis of C-8 alkylamino substituted pyrrolo[2,1-c][1,4]benzodiazepines as potential anti-cancer agents” (2002).

What was measured:
Format in all cases: functional
[1] = test system: Panel renal (Carcinoma cell lines); experiment: Compound was tested for 50% lethality in Renal cancer cell lines; conditions: Homo sapiens, read-out: Log LC50 (the source's name) (converted)
[2] = test system: Panel prostate (Carcinoma cell lines); experiment: Compound was tested for 50% lethality in Prostate cancer cell lines; conditions: Homo sapiens, read-out: Log LC50 (converted)
[3] = test system: Panel CNS (Carcinoma cell lines); experiment: Compound was tested for 50% lethality in CNS cancer cell lines; conditions: Homo sapiens, read-out: Log LC50 (the source's name) (converted)
[4] = test system: leukaemia cell line; experiment: Compound was tested for 50% lethality in leukemia cancer cell lines; conditions: Homo sapiens, read-out: Log LC50 (the source's name) (converted)
[5] = test system: Panel breast (Carcinoma cell lines); experiment: Compound was tested for 50% lethality in Breast cancer cell lines; conditions: Homo sapiens, read-out: Log LC50 (the source's name) (converted)
[6] = test system: Panel melanoma (Carcinoma cell lines); experiment: Compound was tested for 50% lethality in Melanoma cancer cell lines; conditions: Homo sapiens, read-out: Log LC50 (the source's name) (converted)
[7] = test system: Panel colon (Carcinoma cell lines); experiment: Compound was tested for 50% lethality in Colon cancer cell lines; conditions: Homo sapiens, read-out: Log LC50 (the source's name) (converted)
[8] = test system: NSCLC; experiment: Compound was tested for 50% lethality in Non-small-cell lung cancer cell lines; conditions: Homo sapiens, read-out: Log LC50 (the source's name) (converted)
[9] = test system: Panel ovarian (Carcinoma cell lines); experiment: Compound was tested for 50% lethality in Ovarian cancer cell lines; conditions: Homo sapiens, read-out: Log LC50 (the source's name) (converted)

Row | Compound | CC50 [1] | CC50 [2] | CC50 [3] | CC50 [4] | CC50 [5] | CC50 [6] | CC50 [7] | CC50 [8] | CC50 [9]
1 | CCN(CC)CCCOc1cc2c(cc1OC)C(=O)N1CCC[C@H]1C=N2 | > 100 µM | > 100 µM | > 100 µM | > 100 µM | > 100 µM | 93.3 µM | 87.1 µM | > 100 µM | > 100 µM
2 | COc1cc2c(cc1OCCCN1CCN(C)CC1)N=C[C@@H]1CCCN1C2=O | 56.2 µM | > 100 µM | 64.6 µM | 52.5 µM | 64.6 µM | 30.9 µM | 55 µM | 67.6 µM | 61.7 µM
3 | COc1cc2c(cc1OCCCN1CCOCC1)N=C[C@@H]1CCCN1C2=O | 97.7 µM | > 100 µM | 95.5 µM | > 100 µM | 97.7 µM | 87.1 µM | 66.1 µM | 95.5 µM | > 100 µM
